According to patent publication US20220218729A1, “USE OF GINSENOSIDE M1 FOR TREATING CANCER” (priority 2019, published 2022):

What was measured:
Assay type in all cases: cell-based
[1] = tested on: human malignant melanoma A375.S2 cells; test: Annexin V/PI apoptosis flow cytometry (A375.S2); settings: 24 h, FIG. 4
Method: (§1) Human malignant melanoma A375.S2 cell line was obtained from the American Type Culture Collection (ATCC, USA). A375.S2 cells were grown in minimum essential medium supplemented with 10% fetal bovine serum, 100 U/mL of penicillin, and 100 μg/mL of streptomycin (Life Technologies, USA). PC-3 cells (hormone-independent human prostate cancer cells) were cultured in Ham's F12K medium supplemented with 7% fetal bovine serum, 100 U/mL of penicillin, and 100 μg/mL of streptomycin (Life Technologies, USA). Cells were cultured at 37° C. in a 5% CO2 incubator.
A375.S2 cells were seeded at 2.5×10^5 into 6-well plates, and incubated with M1 (40 μM), cisplatin (50 μM) or vehicle for 24 h. To perform apoptosis using an Annexin V-FITC/PI apoptosis detection kit (BD Biosciences, USA) according to the manufacturer's instructions, and then analyzed by flow cytometry (BD Biosciences).
(§2) To further investigate mechanism of action of M1, we used Annexin V/PI double staining by flow cytometry and crucial protein expression by Western blot analysis to measured targeting hallmarks of apoptosis.

[2] = tested on: human malignant melanoma A375.S2 cells; test: Cell viability, trypan blue exclusion (A375.S2); settings: 24 h, FIG. 1
Method: as §1
(§3) Seeding cells (2.5×10^5 cells/well) in 6-well plates and incubated with different concentrations of M1 (10, 20 and 40 μM), cisplatin (50 μM) or vehicle for 24 h. Cells were detached by trypsinization and the cell numbers were counted by trypan blue exclusion method.
To investigates the effect of M1 on the inhibition of human malignant melanoma cell growth, A375 cells were cultured with various concentration of M1.

[3] = tested on: human prostate cancer PC-3 cells; test: Annexin V/PI apoptosis flow cytometry (PC-3); settings: M1 40 μM, 24 h, vs vehicle; FIG. 9
Method: as §1
(§4) Furthermore, to investigate mechanisms underlying the apoptosis-inducing activity of M1, we detected Annexin V/PI double staining by flow cytometry and apoptosis related protein expression by Western blot. PC-3 cells were plate 2.5×10^5 per 6-well plates, and incubated with M1 (40 μM) or vehicle for 24 h. The cells were harvested by gently trypsinizing and wash with ice-PBS twice, then stained with Annexin V-FITC/PI apoptosis detection kit (BD Biosciences, USA) according to the manufacturer's instructions and measured using a flow cytometer within 1 hour. […] The data are expressed as the means±SEM for three separate experiments. ***p<0.005. (One-way ANOVA and subsequent Scheffe's test).

[4] = tested on: human malignant melanoma A375.S2 cells; test: Colony formation assay (A375.S2); settings: M1 10, 20 and 40 μM, 10 days; FIG. 2
Method: as §1
(§5) Plate 500 cells per well into 6-well plates and incubated with different M1 concentrations (10, 20, and 40 μM) or vehicle for 10 days. Cells were fixed in 4% paraformaldehyde after washing with cold PBS twice, and stained with 0.5% crystal violet 10 min at room temperature.
To investigates the effect of M1 on the reduction of colony formation ability of melanoma cells, A375. S2 cells were subjected to colony formation assay with various concentration of M1.

[5] = tested on: human prostate cancer PC-3 cells; test: Colony formation assay (PC-3); settings: M1 10, 20 and 40 μM, 10 days, dose-dependent, vs vehicle; FIG. 7
Method: as §1, §5
Seeding 500 cells per 6-well plates and treated for 10 days with different concentrations of M1 (10, 20, and 40 μM) or vehicle. The cells were fixed in 4% paraformaldehyde for 15 min, after washing with cold PBS twice, and stained with 0.5% crystal violet 10 min at room temperature. […] The data are expressed as the means±SEM for three separate experiments. *p<0.05, ***p<0.005. (One-way ANOVA and subsequent Scheffe's test).

[6] = tested on: human prostate cancer PC-3 cells; test: Wound healing assay (PC-3); settings: M1 20 or 40 μM, 24 h, vs vehicle; FIG. 8
Method: as §1
(§6) Cells were seeded at 6×10^5 into 6-well plates and incubated for 24 h. Then used a sterile 200-μl pipette tip to create a straight gap of constant width, and each well was washed with sterile PBS. Next, the cells were incubated with various concentrations of M1 (10, 20, and 40 μM) or vehicle. The cells were photographed at 0 and 24 h under a microscope at 100× magnification.
Next, we performed whether M1 reduces the migration ability by wound healing assay in PC-3 cells. Cells were seeded at 6×10^5 per 6-well plates in culture medium and were grown overnight at 37° C. in a 5% CO2 incubator. Each well was scratched with sterile 200-μl pipette tip in the cell monolayer, and washed with sterile PBS twice. […] The data are expressed as the means±SEM for three separate experiments. *p<0.05, ***p<0.005. […]

[7] = tested on: human prostate cancer PC-3 cells; test: Western blot of apoptosis-related proteins (PC-3); settings: PC-3, M1 10, 20 and 40 μM, 24 h, FIGS. 10A, 10B
Method: as §1
(§7) Plate 4×10^5 cells per well into 6-cm dish, and incubated with different concentrations of M1 (10, 20 and 40 μM), cisplatin (50 μM) or vehicle for 24 h. The cells were exacted by disruption in RIPA buffer (Sigma-Aldrich, Germany) in the presence of protease inhibitor cocktail. Each protein sample was run on a 12% SDS-PAGE gel and transferred to PVDF membrane, which was then incubated for 1 h at room temperature in blocking buffer and then overnight at 4° C. with primary antibodies against caspase-3, caspase-9 (Cell Signaling Technology, USA), Bax, Bcl-2 or β-actin (Santa Cruz, USA). The membrane was incubated for 1 h at room temperature with HRP-conjugated secondary antibodies. The proteins were detected using enhanced chemiluminescence reagent (GE, UK).
as §4

[8] = tested on: human malignant melanoma A375.S2 cells; test: Wound healing assay (A375.S2); settings: M1 20 or 40 μM, 24 h, vs control; FIG. 3
Method: as §1, §6
To investigates the effect of M1 on the inhibition of migration ability of melanoma cells, A375.S2 cells were subjected to the wound healing assay with various concentration of M1.

[9] = tested on: human prostate cancer PC-3 cells; test: Cell viability, trypan blue exclusion (PC-3); settings: M1 10, 20 and 40 μM, 24 h, dose-dependent; FIG. 6
Method: as §1, §3
Plate human prostatic cancer cell line PC-3 2.5×10^5 per 6-well plates and cultured in Ham's F12K medium supplemented with 7% fetal bovine serum, 100 U/mL of penicillin, and 100 μg/mL of streptomycin (Life Technologies, USA). Cells were cultured overnight at 37° C. in a 5% CO2 incubator, and then treated with different concentrations of M1 (10, 20 and 40 μM) or vehicle for 24 h, and the cell numbers were counted by trypan blue exclusion method. […] The data are expressed as the means±SEM for three separate experiments. *p<0.05, **p<0.01. […]

[10] = tested on: human malignant melanoma A375.S2 cells; test: Western blot of apoptosis-related proteins (A375.S2); settings: A375.S2, M1 10, 20 and 40 μM, 24 h, FIGS. 5A, 5B
Method: as §1, §7, §2

| SMILES | percentage of A375.S2 cells with Annexin V/PI double staining ([1]; cisplatin 50 μM) | cell numbers of A375.S2 cells ([2]; cisplatin 50 μM, positive control) | percentage of PC-3 cells with Annexin V/PI double staining [3] | numbers of colonies of A375.S2 cells [4] | colony formation ability of PC-3 cells [5] | cell migration ability of PC-3 cells [6] | Bax/Bc1-2 ratio ([7]; dose-dependent) | protein levels of caspase-9 ([7]; dose-dependent) | pro-caspase-3 protein expression [7] | pro-caspase-9 protein expression [7] | cell migration ability of A375.S2 cells [8] | cell numbers of PC-3 cells [9] | Bcl-2 protein expression ([10]; dose-dependent) | pro-caspase-3 protein expression ([10]; dose-dependent) | pro-caspase-9 protein expression ([10]; dose-dependent) | levels of caspase-3 [10] | levels of caspase-9 [10] | percentage of A375.S2 cells with Annexin V/PI double staining ([1]; M1 40 μM) | cell numbers of A375.S2 cells ([2]; M1 10, 20 and 40 μM, vs control) |
| --- | --- | --- | --- | --- | --- | --- | --- | --- | --- | --- | --- | --- | --- | --- | --- | --- | --- | --- | --- |
| N.N.[Cl][Pt][Cl] [cisplatin, reference compound] | greatly increased the percentage | decreased the cell numbers |  |  |  |  |  |  |  |  |  |  |  |  |  |  |  |  |  |
| CC(C)=CCC[C@](C)(O[C@@H]1OC(CO)[C@@H](O)[C@@H](O)C1O)[C@H]1CC[C@]2(C)C1[C@H](O)CC1[C@@]3(C)CC[C@H](O)C(C)(C)C3CC[C@]12C (stereo partly drawn) [M1, 20-O-β-D-glucopyranosyl-20(S)-protopanaxadiol] |  |  | greatly increased the percentage | reduced dose-dependently | inhibited the colony formation ability | significantly decreased the cell migration ability | increased | increased | significantly decreased | significantly decreased | markedly decreased the cell migration ability | significantly decrease cell numbers | decrease | decrease | decrease | significantly increased | significantly increased | greatly increased the percentage | decreased the cell numbers |
